Holding throughout (format): physicochemical
Data set [1] in a line: Effect of suppressing volatilization: retained ethanol by gas chromatography (Example C-2). The following applies: for Amount of Retained Ethanol: per 1 g of material. The protocol:
About 5 g of an ethanol-retaining material with CTS crystalline anhydrate, branched cyclodextrin, anhydrous trehalose, or dextrin, prepared freshly by the method described in Example C-1, was taken into a 20 ml volume of glass vials. The vials were placed under normal pressure and room temperature for the purpose of evaporating ethanol. The amount of retained ethanol in samples freshly prepared, or after two hours later, four hours later, eight hours later, or 24 hours later, was measured by dissolving each sample in about 10 ml of water, diluting it with water to give a volume of 100 ml in a glass measuring flask, and measuring the amount of ethanol dissolved in the resulting aqueous solution by a gas chromatography. In the case of a soluble starch as a sample, additional centrifuging was carried out after diluting up to 100 ml. The above gas chromatography was carried out using “GC-14B” (a gas liquid chromatography commercialized by Shimazu Corporation, Kyoto, Japan) equipped with “TC-5” (a capillary column sized 0.53 mm in diameter and 15 m in length, commercialized by GL Sciences Inc., Tokyo, Japan). The amount of retained ethanol per 1 g of each material is in Table 2.
In this table, each value in the parentheses means a relative percentage to the ethanol amount (100%) just after its preparation.

A short description of data set [2]: Adsorption of liquid ethanol or acetic acid on saccharide powder (Example C-1). The following applies: until mixture did not keep a powder form; for Amount of Adsorbed Acetic Acid: acetic acid adsorbed on 1 g of saccharide; for Amount of Adsorbed Ethanol: ethanol adsorbed on 1 g of saccharide. An excerpt:
CTS crystalline pentahydrate, prepared by the method described in Example B-3, CTS crystalline monohydrate, prepared by the method described in Example B-4, CTS crystalline anhydrate, prepared by the method described in Example B-5, or CTS amorphous anhydrate prepared by the method described in Example B-6, was used for preparation of aroma-retaining material. “ISOELEAT P™”, a branched cyclodextrin commercialized by Maruha corporation, Tokyo, Japan, anhydrous trehalose prepared by the method described in Japanese Patent Kokai No. 111,284/97, “PINEFIBRE™”, a dextrin commercialized by Matsutani Chemical Industries Co., Ltd., Tokyo, Japan, or soluble starch in a reagent grade commercialized by Katayama Chemical Industries, Co., Ltd., Tokyo, Japan, was dried in vacuo at 80° C. for 16 hours as control saccharides. […] The resulting mixture was weighed. The weight of ethanol or acetic acid was calculated by subtracting the pre-measured saccharide weight. The weight of ethanol or acetic acid adsorbed on 1 g of each saccharide was in Table 1.

Data set [3] can be described thus: Adsorption and 10-day retention of lavender oil, citronellol or phenethyl alcohol on saccharides (Example C-4). The following applies: for Amount of the Adsorbed Substance: freshly prepared sample; for Relative Amount of the Retained Substance: preserved at 25° C. for 10 days vs freshly prepared. An excerpt:
The following example is a test to confirm the effect of CTS crystalline hydrate, CTS crystalline anhydrate, or CTS amorphous anhydrate on retaining, as an aromatic substance, lavender oil, citronellol, or phenethyl alcohol. CTS crystalline pentahydrate prepared by the method described in Example B-3, CTS crystalline anhydrate in Example B-5, and CTS amorphous anhydrate in Example B-6 were used as the test saccharides “ISOELEAT P®”, a branched cyclodextrin commercialized by Maruha Corporation, Tokyo, Japan, was used as a control.
In the case of lavender oil, five parts by weight of each of the above saccharides were taken into a glass dish sized 90 mm in diameter and 20 mm in depth, admixed with one part by weight of lavender oil by stirring. Lavender oil was measured by the method described as follows; admixing 2 ml of diethyl ether with 1 g of each of the above samples freshly prepared or after preserved at 25° C. for 10 days; measuring the extracted lavender oil by gas chromatography using “GC-14B” (a gas chromatography commercialized by Shimazu corporation, Kyoto, Japan) equipped with “TC-Wax” (a capillary column sized 0.53 mm in diameter and 25 m in length commercialized by GL Sciences Inc., Tokyo, Japan.
In the case of citronellol or phenethyl alcohol, five parts by weight of each of the above saccharides were taken into a glass dish sized 90 mm in diameter and 20 mm in depth, admixed with one part by weight of citronellol or phenethyl alcohol, and mixed by stirring. The adsorbed citronellol or phenethyl alcohol was measured by admixing 2 ml of diethyl ether with 1 g of each of the above sample freshly prepared or after preserved at 25° C. for 10 days, and measuring the extracted lavender oil by gas chromatography using “GC-14B” (a gas chromatography device commercialized by Shimazu corporation, Kyoto, Japan) equipped with “DB-5” (a capillary column sized 0.25 mm in diameter and 30 m in length commercialized by GL Sciences Inc., Tokyo, Japan).
The amount of the retained aromatic substance in each sample was calculated using the following formula, and the results were shown in Table 4.
Formula: Relative amount of the retained Substance (%)={(an amount of aromatic substance in a sample preserved for 10 days)/(an amount of aromatic substance in a freshly prepared sample)}×100

Setting [4] is: 2 h later, normal pressure, room temperature.
Setting [5] is: 4 h later, normal pressure, room temperature.
The mark [6] stands for this setting: 8 h later, normal pressure, room temperature.
[7] abbreviates: 24 h later, normal pressure, room temperature.
[8] abbreviates: citronellol, listed as Sample 2.
Where [9] appears, read: lavender oil, listed as Sample 2.
Setting [10] is: phenethyl alcohol, listed as Sample 2.

For the compound `OC[C@H]1O[C@H](O[C@H]2O[C@H](CO)[C@@H](O)[C@H](O)[C@H]2O)[C@H](O)[C@@H](O)[C@@H]1O` [Anhydrous trehalose, reference compound], the “Relative percentage to the ethanol amount just after preparation” value was “(51%)” in data set [1] (2 h later); “(8%)” in data set [1] (4 h later); “(4%)” in data set [1] (8 h later); “(2%)” in data set [1] (24 h later); “(100%)” in data set [1] (freshly prepared). Besides, the “Amount of Retained Ethanol” value is on record as 103 mg in data set [1] (setting [4]); 17 mg in data set [1] (setting [5]); 8 mg in data set [1] (setting [6]); 5 mg in data set [1] (setting [7]); 203 mg in data set [1] (freshly prepared). Moreover, the “Amount of Adsorbed Acetic Acid” value in data set [2] was found to be 0.18 g. For the same compound, the “Amount of Adsorbed Ethanol” value in data set [2] worked out at 0.25 g.
On to `OCC1OC2OCC3O[C@H](O[C@H]4C(O)C(CO)OC(OCC5O[C@H](O[C@@H](C1O)C2O)C(O)C(O)[C@@H]5O)C4O)C(O)C(O)[C@@H]3O` (some centres unmarked) [CTS crystalline anhydrate], for which, in data set [3] (citronellol), the “Adsorbing capability relative to branched cyclodextrin” value was “about 1.2 fold”. The “Amount of the Adsorbed Substance” value worked out at 195 mg/g saccharide in data set [3] (citronellol); 195 mg/g saccharide in data set [3] (setting [8]); 190 mg/g saccharide in data set [3] (lavender oil); 190 mg/g saccharide in data set [3] (setting [9]); 190 mg/g saccharide in data set [3] (phenethyl alcohol); 190 mg/g saccharide in data set [3] (setting [10]). Moreover, the results for the “Relative Amount of the Retained Substance” value in data set [3] (setting [8]), in data set [3] (setting [9]) and in data set [3] (setting [10]) were 42%, 12% and 16%, respectively. Also, the “Adsorbing capacity relative to branched cyclodextrin” value in data set [3] (lavender oil) is “about 1.3 fold”. Besides, the “Relative percentage to the ethanol amount just after preparation” value in data set [1] (2 h later) was “(101%)”; in data set [1] (4 h later) it was “(87%)”; in data set [1] (8 h later), “(3%)”; in data set [1] (24 h later), “(2%)”; in data set [1] (freshly prepared), “(100%)”. Besides, the “Amount of Retained Ethanol” value is given as 335 mg in data set [1] (setting [4]); 290 mg in data set [1] (setting [5]); 10 mg in data set [1] (setting [6]); 5 mg in data set [1] (setting [7]); 333 mg in data set [1] (freshly prepared). For the same compound, the “Amount of Adsorbed Acetic Acid” value in data set [2] is 0.47 g. Further, the “Amount of Adsorbed Ethanol” value in data set [2] is 0.50 g.
